Source: patent US9199947B2, “Biaryl-propionic acid derivatives and their use as pharmaceuticals” (SANOFI, priority 2013, dated 2015)

target: Recombinant human cathepsin A (Homo sapiens (Human), UniProt P10619); assay: Cathepsin A inhibitory activity (Bodipy FL-labeled bradykinin substrate, microfluidic capillary electrophoresis); assay type: biochemical; details: Cathepsin A inhibitory activity, read-out: CATHA IC50
Protocol: Pharmacological Tests a) Cathepsin a Inhibitory Activity
Recombinant human cathepsin A (residues 29-480, with a C-terminal 10-His tag; R&D Systems, #1049-SE) was proteolytically activated with recombinant human cathepsin L (R&D Systems, #952-CY). Briefly, cathepsin A was incubated at 10 μg/ml with cathepsin L at 1 μg/ml in activation buffer (25 mM 2-(morpholin-4-yl)-ethanesulfonic acid (MES), pH 6.0, containing 5 mM dithiothreitol (DTT)) for 15 min at 37° C.
The activated cathepsin A was diluted in assay buffer (25 mM MES, pH 5.5, containing 5 mM DTT) and mixed with the test compound (dissolved in assay buffer containing (v/v) 3% DMSO) or, in the control experiments, with the vehicle in a multiple assay plate. After incubation for 15 min at room temperature, as substrate then bradykinin carrying an N-terminal® Bodipy FL (4,4-difluoro-5,7-dimethyl-4-bora-3a,4a-diaza-s-indacene-3-propionyl) label (JPT Peptide Technologies GmbH; dissolved in assay buffer) was added to the mixture. The final concentration of cathepsin A was 833 ng/ml and the final concentration of labeled bradykinin 2 μM. After incubation for 15 min at room temperature the reaction was stopped by the addition of stop buffer (130 mM 2-(4-(2-hydroxy-ethyl)-piperazin-1-yl)-ethanesulfonic acid, pH 7.4, containing (v/v) 0.013%° Triton X-100, 0.13% Coating Reagent 3 (Caliper Life Sciences), 6.5% DMSO and 20 μM ebelactone B (Sigma, #E0886)).
Uncleaved substrate and product were then separated by a microfluidic capillary electrophoresis on a LabChip® 3000 Drug Discovery System (12-Sipper-Chip; Caliper Life Sciences) and quantified by determination of the respective peak areas. Substrate turnover was calculated by dividing product peak area by the sum of substrate and product peak areas, and the enzyme activity and the inhibitory effect of the test compound thus quantified.

Chain of Recombinant human cathepsin A (P10619 29-326): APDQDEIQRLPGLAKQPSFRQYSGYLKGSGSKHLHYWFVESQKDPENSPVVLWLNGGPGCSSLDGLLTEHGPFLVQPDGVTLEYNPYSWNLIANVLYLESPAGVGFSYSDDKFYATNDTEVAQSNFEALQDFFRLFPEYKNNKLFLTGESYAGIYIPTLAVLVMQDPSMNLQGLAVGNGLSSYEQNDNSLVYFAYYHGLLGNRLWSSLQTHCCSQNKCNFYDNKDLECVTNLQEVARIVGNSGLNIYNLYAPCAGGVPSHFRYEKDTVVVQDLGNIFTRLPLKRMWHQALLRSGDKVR
Chain of Recombinant human cathepsin A (P10619 327-480): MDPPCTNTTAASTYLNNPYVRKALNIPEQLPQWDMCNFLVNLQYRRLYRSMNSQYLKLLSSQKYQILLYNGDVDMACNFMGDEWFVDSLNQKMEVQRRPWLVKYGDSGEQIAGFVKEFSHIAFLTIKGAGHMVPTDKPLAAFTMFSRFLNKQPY

IC50 | SMILES
975 nM | Cc1cnc(C(CC(=O)O)c2cc(F)cc(-c3cccc(OC(F)(F)F)c3)c2)s1 (centres unmarked) [compound 124]
1330 nM | Cc1cnc(C(CC(=O)O)c2cc(F)cc(-c3cccnc3)c2)s1 (centres unmarked) [compound 128]
903 nM | Cc1ccc(F)c(-c2cc(F)cc(C(CC(=O)O)c3ncco3)c2)c1 (centres unmarked) [compound 123]
1690 nM | Cc1cnc(C(CC(=O)O)c2cc(F)cc(-c3ccccc3C#N)c2)s1 (centres unmarked) [compound 131]
1720 nM | CC(=O)c1ccccc1-c1cccc(C(CC(=O)O)c2nnc(C)o2)c1 (centres unmarked) [compound 145]
935 nM | Cc1nnc(C(CC(=O)O)c2cccc(-c3ccccc3)c2)o1 (centres unmarked) [compound 167]
488 nM | Cc1cccc(-c2cc(F)cc(C(CC(=O)O)c3ncco3)c2)c1F (centres unmarked) [compound 119]
1490 nM | O=C(O)CC(c1cc(F)cc(-c2cc(F)ccc2F)c1)c1ncco1 (centres unmarked) [compound 130]
2280 nM | O=C(O)CC(c1cc(F)cc(-c2cccc(OC(F)(F)F)c2)c1)c1ncco1 (centres unmarked) [compound 138]
1770 nM | NC(=O)c1ccccc1-c1cc(F)cc(C(CC(=O)O)c2ncco2)c1 (centres unmarked) [compound 134]
1560 nM | Cc1cnc(C(CC(=O)O)c2cc(Cl)cc(-c3ccncc3F)c2)s1 (centres unmarked) [compound 117]
1720 nM | O=C(O)CC(c1cc(F)cc(-c2ccccc2F)c1)c1ncco1 (centres unmarked) [compound 133]

same assay, conditions: read-out: CATHA IC50

IC50 | SMILES
2810 nM | CC(C)COc1ccc(-c2cccc(C(CC(=O)O)c3nccs3)c2)cc1 (centres unmarked) [compound 36]
2300 nM | COc1ccc(-c2cccc(C)c2C)cc1C(CC(=O)O)c1ncc(C)s1 (centres unmarked) [compound 71]
1650 nM | COc1c(C)cc(-c2cccc(C(CC(=O)O)c3nccs3)c2)cc1C (centres unmarked) [compound 25]
3280 nM | COc1ccc(-c2ccccc2C)cc1C(CC(=O)O)c1ncc(C)s1 (centres unmarked) [compound 78]
1960 nM | COc1ccc(-c2cccc(F)c2)cc1C(CC(=O)O)c1ncc(C)s1 (centres unmarked) [compound 70]
23200 nM | Cc1nnc(C(CC(=O)O)c2cccc(-c3ccncc3)c2)o1 (centres unmarked) [compound 16]
4010 nM | COc1ccc(-c2cccc(F)c2Cl)cc1C(CC(=O)O)c1ncc(C)s1 (centres unmarked) [compound 82]
13600 nM | Cc1cnc(C(CC(=O)O)c2cccc(-c3cncc(C(=O)N4CCOCC4)c3)c2)s1 (centres unmarked) [compound 59]
328 nM | Cc1cnc(C(CC(=O)O)c2cc(Cl)cc(-c3ccccc3F)c2)s1 (centres unmarked) [compound 107]
250 nM | CC(=O)c1ccccc1-c1cc(Cl)cc(C(CC(=O)O)c2ncc(C)s2)c1 (centres unmarked) [compound 106]
3740 nM | COc1ccc(-c2cccc(Cl)c2)cc1C(CC(=O)O)c1ncc(C)s1 (centres unmarked) [compound 81]
567 nM | Cc1cnc(C(CC(=O)O)c2cc(Cl)cc(-c3ccccc3C#N)c2)s1 (centres unmarked) [compound 114]
3090 nM | COc1ccc(-c2ccc(C)cc2C)cc1C(CC(=O)O)c1ncc(C)s1 (centres unmarked) [compound 75]
22600 nM | N#Cc1ccc(-c2cccc(C(CC(=O)O)c3nccs3)c2)cn1 (centres unmarked) [compound 45]
2040 nM | O=C(O)CC(c1cccc(-c2ccccc2Cl)c1)c1nccs1 (centres unmarked) [compound 8]
197 nM | Cc1cnc(C(CC(=O)O)c2cc(Cl)cc(-c3cccc(Cl)c3F)c2)s1 (centres unmarked) [compound 103]
3200 nM | COc1ccc(C=O)c(-c2cccc(C(CC(=O)O)c3nccs3)c2)c1 (centres unmarked) [compound 37]
459 nM | Cc1cnc(C(CC(=O)O)c2cc(Cl)cc(-c3ccncc3)c2)s1 (centres unmarked) [compound 112]
987 nM | O=C(O)CC(c1cccc(-c2ccc3c(c2)OCCO3)c1)c1nccs1 (centres unmarked) [compound 19]
954 nM | COc1ccc(-c2cccc(Cl)c2F)cc1C(CC(=O)O)c1ncc(C)s1 (centres unmarked) [compound 61]
221 nM | Cc1cnc(C(CC(=O)O)c2cc(Cl)cc(-c3ccccc3OC(F)(F)F)c2)s1 (centres unmarked) [compound 104]
3270 nM | COc1ccc(-c2ccc(OC)c(C(CC(=O)O)c3ncc(C)s3)c2)c(F)c1 (centres unmarked) [compound 77]
2300 nM | CC(=O)c1ccccc1-c1cccc(C(CC(=O)O)c2ncc(C)s2)c1 (centres unmarked) [compound 55]
631 nM | Cc1cnc(C(CC(=O)O)c2cccc(-c3ccccc3F)c2)s1 (centres unmarked) [compound 53]
989 nM | COc1ccc(-c2cccc(C(CC(=O)O)c3ncc(C)s3)c2)c(F)c1 (centres unmarked) [compound 54]
1750 nM | O=C(O)CC(c1cccc(-c2ccc(Cl)cc2)c1)c1nccs1 (centres unmarked) [compound 7]
2290 nM | O=C(O)CC(c1cccc(-c2ccc(OCC3CC3)cc2)c1)c1nccs1 (centres unmarked) [compound 30]

IC50 | SMILES
2420 nM | N#CCOc1ccc(-c2cccc(C(CC(=O)O)c3nccs3)c2)cc1 (centres unmarked) [compound 32]
1890 nM | CC(C)(C)c1cccc(-c2cccc(C(CC(=O)O)c3nccs3)c2)c1 (centres unmarked) [compound 1]
4380 nM | COc1ccc(-c2ccc(C(F)(F)F)cc2)cc1C(CC(=O)O)c1ncc(C)s1 (centres unmarked) [compound 83]
19400 nM | O=C(O)CC(c1cccc(-c2ccncc2Cl)c1)c1nccs1 (centres unmarked) [compound 43]
2720 nM | O=C(O)CC(c1cccc(-c2cccc(F)c2Cl)c1)c1nccs1 (centres unmarked) [compound 11]
136 nM | Cc1cnc(C(CC(=O)O)c2cc(Cl)cc(-c3cc(F)ccc3F)c2)s1 (centres unmarked) [compound 101]
2650 nM | COc1ccc(-c2ccc(F)cc2F)cc1C(CC(=O)O)c1ncc(C)s1 (centres unmarked) [compound 74]
3620 nM | O=C(O)CC(c1cccc(-c2cc(C(F)(F)F)ccc2F)c1)c1nccs1 (centres unmarked) [compound 13]
2430 nM | O=C(O)CC(c1cccc(-c2ccc(OCc3ccccc3)c(F)c2)c1)c1nccs1 (centres unmarked) [compound 33]
634 nM | Cc1nnc(C(CC(=O)O)c2cccc(-c3cccc(Cl)c3Cl)c2)o1 (centres unmarked) [compound 15]
21200 nM | O=C(O)CC(c1cccc(-c2cccnc2)c1)c1nccs1 (centres unmarked) [compound 44]
797 nM | Cc1cccc(-c2cccc(C(CC(=O)O)c3nccs3)c2)c1Cl (centres unmarked) [compound 4]
466 nM | COc1cc(F)c(-c2cccc(C(CC(=O)O)c3ncc(C)s3)c2)cc1F (centres unmarked) [compound 52]
1670 nM | Cc1c(Cl)cccc1-c1cccc(C(CC(=O)O)c2nccs2)c1 (centres unmarked) [compound 6]
967 nM | O=C(O)CC(c1cccc(-c2cccc(Cl)c2)c1)c1nccs1 (centres unmarked) [compound 5]
7540 nM | Cc1cnc(C(CC(=O)O)c2cccc(-c3cccnc3)c2)s1 (centres unmarked) [compound 58]
769 nM | Cn1nc(-c2cccc(C(CC(=O)O)c3nccs3)c2)c2ccccc21 (centres unmarked) [compound 18]
3730 nM | COc1ccc(-c2ccc(F)cc2C)cc1C(CC(=O)O)c1ncc(C)s1 (centres unmarked) [compound 80]
970 nM | COc1ccc(-c2ccc(C)cc2F)cc1C(CC(=O)O)c1ncc(C)s1 (centres unmarked) [compound 62]
2310 nM | CC(C)COc1cc(F)cc(-c2cccc(C(CC(=O)O)c3nccs3)c2)c1 (centres unmarked) [compound 31]
9540 nM | Cc1cc(-c2cccc(C(CC(=O)O)c3nccs3)c2)n(C)n1 (centres unmarked) [compound 40]
4390 nM | COc1ccc(-c2ccc(F)cc2)cc1C(CC(=O)O)c1ncc(C)s1 (centres unmarked) [compound 84]
354 nM | Cc1cnc(C(CC(=O)O)c2cc(Cl)cc(-c3cccc(F)c3F)c2)s1 (centres unmarked) [compound 109]
7120 nM | COc1ccc(-c2cccc(C)c2)cc1C(CC(=O)O)c1ncc(C)s1 (centres unmarked) [compound 90]
18100 nM | COc1ccc(-c2cccc(OC(F)(F)F)c2)cc1C(CC(=O)O)c1ncc(C)s1 (centres unmarked) [compound 96]
2280 nM | COc1cc(-c2cccc(C(CC(=O)O)c3nccs3)c2)ccc1O (centres unmarked) [compound 29]
